Assay results published in patent EP3095787A1, “[…] ACTIVE COMPOUNDS AS DAG-LIPASE INHIBITORS” (Universiteit Leiden, priority 2015, dated 2016).
Entries after “also recorded” stand apart in the source; their conditions may differ.

Key:
FAAH = details: reported value; cited from earlier work
DAGL-β = target: T1, DAGL-β (Mus musculus, UniProt Q91WC9); assay: Competitive ABPP with MB064 in mouse spleen membrane proteome; type: biochemical; details: 10 µM compound, MB064 1.0 µM
T1 construct: from tissue; host or cells: mouse spleen membrane proteome
T1 sequence (Q91WC9 1-669): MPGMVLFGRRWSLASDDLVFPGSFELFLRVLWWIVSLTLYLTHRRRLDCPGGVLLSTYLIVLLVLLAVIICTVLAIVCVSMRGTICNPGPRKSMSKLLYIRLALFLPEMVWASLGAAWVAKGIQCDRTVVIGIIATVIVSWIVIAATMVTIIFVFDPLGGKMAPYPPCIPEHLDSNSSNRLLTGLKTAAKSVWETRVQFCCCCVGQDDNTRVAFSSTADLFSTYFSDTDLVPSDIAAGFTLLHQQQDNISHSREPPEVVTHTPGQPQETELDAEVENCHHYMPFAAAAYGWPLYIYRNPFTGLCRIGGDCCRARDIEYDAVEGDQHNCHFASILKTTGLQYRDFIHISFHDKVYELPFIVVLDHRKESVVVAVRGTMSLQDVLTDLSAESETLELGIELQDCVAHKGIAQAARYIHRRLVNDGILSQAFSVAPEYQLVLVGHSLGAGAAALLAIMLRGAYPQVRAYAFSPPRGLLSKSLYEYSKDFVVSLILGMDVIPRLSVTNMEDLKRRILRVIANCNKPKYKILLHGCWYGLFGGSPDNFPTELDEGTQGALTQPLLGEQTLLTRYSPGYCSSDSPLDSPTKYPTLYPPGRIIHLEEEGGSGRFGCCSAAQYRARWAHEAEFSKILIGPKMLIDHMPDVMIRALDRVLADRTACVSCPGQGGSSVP

Neuro2A cells = assay: Targeted lipidomics in Neuro2A cells; type: cell-based, mouse; details: in situ treatment 1h, 37 °C; n=4
Protocol: To test the cellular activity of inventive compound 25, the inventor used Neuro2A cells, which is a mouse neuroblastoma cell line known to express both DAGL-α and DAGL-β. In a targeted lipidomics experiment the effect of inventive compound 25 on the cellular levels of 2-AG and anandamide was determined.
Neuro2A cells were cultured as described above. Before inhibitor treatment, the culture medium was removed and the cells were washed with warm (37 °C) serum free medium (3x). The cells were treated with vehicle (DMSO) or inhibitor for 1h at 37 °C in serum free medium. […]
Endocannabinoids were measured using a chip-based nano liquid chromatography (LC) system coupled to a triple quadrupole mass spectrometer. […]
A 6440 Triple quadrupole equipped with a nonoESI source operating in positive mode (Agilent technologies, Walborn, Germany) was used for MS detection. […] Quantification was obtained using static MRM (multiple reaction monitoring) mode of the transistions at m/z 379.3 → 287.2 for 2AG, 348.3 → 62.2 for AEA and 387.3 → 294.2 for 2AGd8, 356.3 → 62.2 for AEAd8 (internal standards). […] Raw MS data were processes using mass hunter quantitative analysis work station (Agilent technologies). AEA and 2AG was quantified by using a matrix matched internal standard calibration curve. […]

human PC3 cells = assay: Lipidomics in PC3 cells; type: cell-based; details: 4h at 37 °C in serum free medium
Protocol: To test the activity of inventive compound 25 in a human cell line, human PC3 cells (prostate cancer cell line) were used. The protocol for lipodomics in PC3 cells is given below. Before inhibitor treatment, the culture medium was removed and the cells were washed with warm (37 °C) serum free medium (3x). The cells were treated with vehicle (DMSO) or inhibitor for 4h at 37 °C in serum free medium. After 4h of incubation medium was removed and the cells were washed with cold (4°C) DPBS (3x) and subsequently suspended in DPBS and pelleted. The cell pellet metabolome was extracted and by MeOH/CHCl3 extraction and analysed by LCMS/MS of a triple quad mass spectometer (agilent). The concentration of the lipids was determined by comparison with spiked deuterated standards of the lipd species. […] This may indicate that downstream metabolic pathways of 2-AG signaling are also affected and that the biosynthesis of 2-AG is the rate-limiting step.

| Structure (SMILES) | FAAH Activity assay reported pKi (FAAH) | Native DAGL-β activity (labeling by MB064) (DAGL-β) | anandamide levels (Neuro2A cells) | basal 2-AG levels (Neuro2A cells) | 2-AG levels (human PC3 cells) | arachidonic acid levels (human PC3 cells) | substrate levels of DAGL (human PC3 cells) |
| --- | --- | --- | --- | --- | --- | --- | --- |
| O=C(CCCCCc1ccccc1)c1nc2ncccc2o1 [Compound 1, 1-(Oxazolo[4,5-b]pyridin-2-yl)-6-phenylhexan-1-one, reference compound] | 9.70 | – | – | – | – | – | – |
| Cc1ccc(-c2cnc3nc(C(=O)CCCCCc4ccccc4)oc3c2)cc1 [Compound 25, 1-(6-(p-Tolyl)oxazolo[4,5-b]pyridin-2-yl)-6-phenylhexan-1-one] | – | can block labeling of endogenously expressed DAGL-β; also recorded: could also be inhibited | constant | dose dependently decreased | reduced 2-AG levels | reduced | no change |
